Literature values, collected in PubChem BioAssay AID1259409 (Chemical Carcinogenesis Research Information System (CCRIS), 2018).

Tested on: rodent chemically induced tumor inhibition, incidence and multiplicity
Assay: CCRIS tumor inhibitor studies
Details: Dose [Inhibitor]: 0, Route [Inhibitor]: ORAL

C[C@]12CC[C@H](O)CC1=CC[C@@H]1[C@@H]2CC[C@]2(C)C(=O)CC[C@@H]12
tumour outcome (control, treated, inhibition, significance) (Carcinogen: N-BUTYL-N-(4-HYDROXYBUTYL)NITROSAMINE, 3817-11-6, 0.6% IN DIET BEGINNING 3 D POST CARCINOGEN TREATMENT AND CONTINUING FOR 32 WK (STUDY DURATION: 36 WK), Species: RAT, Strain/Sex: F344/MALE, Target Tissue: Type of Lesion: URINARY BLADDER: PAPILLOMA, Dose [Carcinogen]: 0.05% IN DRINKING WATER FOR 4 WK, Promoter: BUTYLATED HYDROXYANISOLE, 25013-16-5): 12/15 (80%), 6/15 (40%), 50%, p<0.05
tumour outcome (control, treated, inhibition, significance) (Carcinogen: N-METHYL-N'-NITRO-N-NITROSOGUANIDINE, 70-25-7, 55 PPM IN DIET FOR 6 MO BEGINNING 3 MO POST CARCINOGEN TREATMENT (STUDY DURATION: 9 MO), Species: FISH, Strain/Sex: RAINBOW TROUT/MALE,FEMALE, Target Tissue: Type of Lesion: STOMACH: TUMOR, Dose [Carcinogen]: 35 PPM IN WATER FOR 30 MIN ONCE, Promoter: NONE USED): 38%, 34%, 11%, not significant
tumour outcome (control, treated, inhibition, significance) (Carcinogen: N-METHYL-N'-NITRO-N-NITROSOGUANIDINE, 70-25-7, 55 PPM IN DIET FOR 6 MO BEGINNING 3 MO POST CARCINOGEN TREATMENT (STUDY DURATION: 9 MO), Species: FISH, Strain/Sex: RAINBOW TROUT/MALE,FEMALE, Target Tissue: Type of Lesion: SWIN BLADDER: TUMOR, Dose [Carcinogen]: 35 PPM IN WATER FOR 30 MIN ONCE, Promoter: NONE USED): 13%, 3%, 77%, p<0.05
tumour outcome (control, treated, inhibition, significance) (Carcinogen: N-METHYL-N'-NITRO-N-NITROSOGUANIDINE, 70-25-7, 111 PPM IN DIET FOR 6 MO BEGINNING 3 MO POST CARCINOGEN TREATMENT (STUDY DURATION: 9 MO), Species: FISH, Strain/Sex: RAINBOW TROUT/MALE,FEMALE, Target Tissue: Type of Lesion: STOMACH: TUMOR, Dose [Carcinogen]: 35 PPM IN WATER FOR 30 MIN ONCE, Promoter: NONE USED): 38%, 27%, 29%, not significant
tumour outcome (control, treated, inhibition, significance) (Carcinogen: N-METHYL-N'-NITRO-N-NITROSOGUANIDINE, 70-25-7, 111 PPM IN DIET FOR 6 MO BEGINNING 3 MO POST CARCINOGEN TREATMENT (STUDY DURATION: 9 MO), Species: FISH, Strain/Sex: RAINBOW TROUT/MALE,FEMALE, Target Tissue: Type of Lesion: SWIM BLADDER: TUMOR, Dose [Carcinogen]: 35 PPM IN WATER FOR 30 MIN ONCE, Promoter: NONE USED): 13%, 3%, 77%, p<0.05
tumour outcome (control, treated, inhibition, significance) (Carcinogen: N-METHYL-N'-NITRO-N-NITROSOGUANIDINE, 70-25-7, 222 PPM IN DIET FOR 6 MO BEGINNING 3 MO POST CARCINOGEN TREATMENT (STUDY DURATION: 9 MO), Species: FISH, Strain/Sex: RAINBOW TROUT/MALE,FEMALE, Target Tissue: Type of Lesion: STOMACH: TUMOR, Dose [Carcinogen]: 35 PPM IN WATER FOR 30 MIN ONCE, Promoter: NONE USED): 38%, 31%, 18%, not significant
tumour outcome (control, treated, inhibition, significance) (Carcinogen: N-METHYL-N'-NITRO-N-NITROSOGUANIDINE, 70-25-7, 222 PPM IN DIET FOR 6 MO BEGINNING 3 MO POST CARCINOGEN TREATMENT (STUDY DURATION: 9 MO), Species: FISH, Strain/Sex: RAINBOW TROUT/MALE,FEMALE, Target Tissue: Type of Lesion: SWIM BLADDER: TUMOR, Dose [Carcinogen]: 35 PPM IN WATER FOR 30 MIN ONCE, Promoter: NONE USED): 13%, 3%, 77%, p<0.05
tumour outcome (control, treated, inhibition, significance) (Carcinogen: N-METHYL-N'-NITRO-N-NITROSOGUANIDINE, 70-25-7, 444 PPM IN DIET FOR 6 MO BEGINNING 3 MO POST CARCINOGEN TREATMENT (STUDY DURATION: 9 MO), Species: FISH, Strain/Sex: RAINBOW TROUT/MALE,FEMALE, Target Tissue: Type of Lesion: STOMACH: TUMOR, Dose [Carcinogen]: 35 PPM IN WATER FOR 30 MIN ONCE, Promoter: NONE USED): 38%, 36%, 5%, not significant
tumour outcome (control, treated, inhibition, significance) (Carcinogen: N-METHYL-N'-NITRO-N-NITROSOGUANIDINE, 70-25-7, 444 PPM IN DIET FOR 6 MO BEGINNING 3 MO POST CARCINOGEN TREATMENT (STUDY DURATION: 9 MO), Species: FISH, Strain/Sex: RAINBOW TROUT/MALE,FEMALE, Target Tissue: Type of Lesion: SWIM BLADDER: TUMOR, Dose [Carcinogen]: 35 PPM IN WATER FOR 30 MIN ONCE, Promoter: NONE USED): 13%, 8%, 38%, not significant
tumour outcome (control, treated, inhibition, significance) (Carcinogen: N-METHYL-N'-NITRO-N-NITROSOGUANIDINE, 70-25-7, 888 PPM IN DIET FOR 6 MO BEGINNING 3 MO POST CARCINOGEN TREATMENT (STUDY DURATION: 9 MO), Species: FISH, Strain/Sex: RAINBOW TROUT/MALE,FEMALE, Target Tissue: Type of Lesion: STOMACH: TUMOR, Dose [Carcinogen]: 35 PPM IN WATER FOR 30 MIN ONCE, Promoter: NONE USED): 38%, 26%, 32%, not significant
tumour outcome (control, treated, inhibition, significance) (Carcinogen: N-METHYL-N'-NITRO-N-NITROSOGUANIDINE, 70-25-7, 888 PPM IN DIET FOR 6 MO BEGINNING 3 MO POST CARCINOGEN TREATMENT (STUDY DURATION: 9 MO), Species: FISH, Strain/Sex: RAINBOW TROUT/MALE,FEMALE, Target Tissue: Type of Lesion: SWIM BLADDER: TUMOR, Dose [Carcinogen]: 35 PPM IN WATER FOR 30 MIN ONCE, Promoter: NONE USED): 13%, 6%, 54%, not significant
tumour outcome (control, treated, inhibition, significance) (Carcinogen: N-METHYL-N-NITROSOUREA, 684-93-5, 0.1% IN DIET FOR DURATION OF STUDY BEGINNING 1 WK PRIOR TO CARCINOGEN DOSE (STUDY DURATION: 187 D), Species: RAT, Strain/Sex: SPRAGUE-DAWLEY/FEMALE, Target Tissue: Type of Lesion: MAMMARY GLAND: CARCINOMA, Dose [Carcinogen]: 50 MG/KG ONCE AT 50 D OF AGE, Promoter: NONE USED): 100%, 68%, 32%, p<0.05
tumour outcome (control, treated, inhibition, significance) (Carcinogen: N-METHYL-N-NITROSOUREA, 684-93-5, 0.2% IN DIET FOR 2 WK BEGINNING 1 WK PRIOR TO CARCINOGEN DOSE (STUDY DURATION: 187 D), Species: RAT, Strain/Sex: SPRAGUE-DAWLEY/FEMALE, Target Tissue: Type of Lesion: MAMMARY GLAND: CARCINOMA, Dose [Carcinogen]: 50 MG/KG ONCE AT 50 D OF AGE, Promoter: NONE USED): 100%, 100%, 0%, not significant
tumour outcome (control, treated, inhibition, significance) (Carcinogen: N-METHYL-N-NITROSOUREA, 684-93-5, 0.2% IN DIET FOR DURATION OF STUDY BEGINNING 1 WK POST CARCINOGEN DOSE (STUDY DURATION: 180 D), Species: RAT, Strain/Sex: SPRAGUE-DAWLEY/FEMALE, Target Tissue: Type of Lesion: MAMMARY GLAND: CARCINOMA, Dose [Carcinogen]: 50 MG/KG ONCE AT 50 D OF AGE, Promoter: NONE USED): 100%, 67%, 33%, p<0.05
tumour outcome (control, treated, inhibition, significance) (Carcinogen: N-METHYL-N-NITROSOUREA, 684-93-5, 0.2% IN DIET FOR DURATION OF STUDY BEGINNING 1 WK PRIOR TO CARCINOGEN DOSE (STUDY DURATION: 187 D), Species: RAT, Strain/Sex: SPRAGUE-DAWLEY/FEMALE, Target Tissue: Type of Lesion: MAMMARY GLAND: CARCINOMA, Dose [Carcinogen]: 50 MG/KG ONCE AT 50 D OF AGE, Promoter: NONE USED): 100%, 48%, 52%, p<0.05
